biological target: T1, p53 Y220C (Homo sapiens, UniProt P04637, Y220C); test: In vitro DNA binding activity assay (HTRF / TR-FRET): stabilization of p53 Y220C and increase of its DNA binding activity; type: biochemical; details: recombinant His-tagged p53 Y220C DNA binding domain (aa 94-312), biotin-labeled consensus DNA, incubated at 27° C. or 29° C. for 60 min
T1 construct: The recombinant protein was a truncation mutant containing only amino acids 94-312 of p53; made in house; host or cells: E. coli
T1 sequence (P04637 94-312, change not shown): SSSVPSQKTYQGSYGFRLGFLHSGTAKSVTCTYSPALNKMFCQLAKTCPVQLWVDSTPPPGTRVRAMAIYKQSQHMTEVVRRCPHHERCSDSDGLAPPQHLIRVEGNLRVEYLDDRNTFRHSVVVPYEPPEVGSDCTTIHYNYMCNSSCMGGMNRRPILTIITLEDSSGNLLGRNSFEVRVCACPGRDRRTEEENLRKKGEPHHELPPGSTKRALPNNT
Summary of the method: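 Compounds from 4.5 mM DMSO stocks, 3-fold serial dilutions; room-temperature incubations of 15 and 20 min. SC150 = concentration raising DNA binding by 50% over no-compound control.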

SC150 (concentration of the compound required to increase the DNA binding activity by 50%), + (+ = 0 μM ≤ SC150 < 0.05 μM):
CNC(=O)c1ccc(NCC#Cc2cc3c(N[C@H]4CCN(C(C)(C)C)C[C@H]4F)cccc3n2CC(F)(F)F)c(OC)c1 [Compound 1073A, 4-{[3-(4-{[(3R,4S)-1-tert-butyl-3-fluoropiperidin-4-yl]amino}-1-(2,2,2-trifluoroethyl)-1H-indol-2-yl)prop-2-yn-1-yl]amino}-3-methoxy-N-methylbenzamide]
CCN1CC[C@@H](Nc2cccc3c2cc(C#CCNc2ccc(C(=O)NC)cc2OC)n3CC(F)(F)F)[C@@H](F)C1 [Compound 1074A, 4-{[3-(4-{[(3S,4R)-1-ethyl-3-fluoropiperidin-4-yl]amino}-1-(2,2,2-trifluoroethyl)-1H-indol-2-yl)prop-2-yn-1-yl]amino}-3-methoxy-N-methylbenzamide]
CCN1CC[C@H](Nc2cccc3c2cc(C#CCNc2ccc(C(=O)NC)cc2OC)n3CC(F)(F)F)[C@H](F)C1 [Compound 1075A, 4-{[3-(4-{[(3R,4S)-1-ethyl-3-fluoropiperidin-4-yl]amino}-1-(2,2,2-trifluoroethyl)-1H-indol-2-yl)prop-2-yn-1-yl]amino}-3-methoxy-N-methvlbenzamide]
